Consider two molecules from paper PMC9944328 (Nature Communications, 2023).

Read-outs that look alike come from different tables or passages of the source.

The target of assay [1] is SSTR3 mutants (Homo sapiens, UniProt P32745). In words: SSTRs Gi-mediated cAMP inhibition, GloSensor, HEK293 (SSTR3 mutants). The assay is classed as cell-based. Also on record: Bottom / Top / Span / Top (best-fit): unit not given here. The following applies: for Emax: HEK293; for LogEC50 (best-fit) / Top (best-fit): cAMP inhibition, SSTR3 N101V. The procedure:
(§1) The levels of the intracellular 3′, 5′-cyclic AMP (cAMP) were measured by the GloSensor cAMP assay (Promega) as described in the previous studies[28],[41] which has been widely used. The human full-length SSTRs and mutants were cloned into the pcDNA3.1+ vector with a HA signal sequence followed by a Flag tag at the N-terminus. […] Cells were then co-transfected with SSTR wild-type or mutants and GloSensor plasmids. After 24 h of transfection, the cells were dissociated with TrypLE™ Express Enzyme (1X) (Thermo Fisher Scientific) and collected by centrifugation at 500 × g for 5 min. Then the collected cells were suspended in Hank’s balanced salt solution [HBSS (Thermo Fisher Scientific)] supplemented with […] potassium salt solution (YEASEN), and then the suspension cells were seeded into 96-well plates with 90 μl/well. After incubating at room temperature for 40 min, 5 μM forskolin and ligands diluted in HBSS were added to each well and the plates were incubated at room temperature for 15 min. […] signals were measured using the Synergy H1 microplate reader (BioTek) and the data presented are means of at least three independent experiments.

Assay [2] deals with T1, SSTR3 mutants (Homo sapiens, UniProt P32745, H192T).
T1 construct: The human full-length SSTRs and mutants were cloned into the pcDNA3.1+ vector; expressed in transfected cells; host or cells: HEK293 (ATCC, CRL-1573)
Described as above. The assay is classed as cell-based. Also on record: Bottom / Top / Span / Top (best-fit): unit not given here. Particulars: for Emax: HEK293; for LogEC50 (best-fit) / Top (best-fit): cAMP inhibition, SSTR3 H192T. The procedure:
as §1

T1 sequence (P32745 whole entry H192T): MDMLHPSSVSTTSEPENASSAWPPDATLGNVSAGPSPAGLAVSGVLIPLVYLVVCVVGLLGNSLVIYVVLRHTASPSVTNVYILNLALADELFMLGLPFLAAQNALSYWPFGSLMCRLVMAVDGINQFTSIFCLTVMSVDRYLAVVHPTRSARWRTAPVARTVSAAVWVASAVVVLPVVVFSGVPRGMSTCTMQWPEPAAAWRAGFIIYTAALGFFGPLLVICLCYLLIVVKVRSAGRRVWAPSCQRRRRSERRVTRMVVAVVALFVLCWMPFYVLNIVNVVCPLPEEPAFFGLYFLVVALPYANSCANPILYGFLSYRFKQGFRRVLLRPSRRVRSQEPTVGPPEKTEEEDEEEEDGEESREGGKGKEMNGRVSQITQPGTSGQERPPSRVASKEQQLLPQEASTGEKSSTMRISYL
SSTR3 mutants (Homo sapiens, UniProt P32745), sequence (P32745 whole entry N104V): as the sequence (P32745 whole entry H192T) above, with N104V, T192H counted along it

As to `C[C@@H](O)[C@@H]1NC(=O)[C@H](CCCCN)NC(=O)[C@@H](Cc2c[nH]c3ccccc23)NC(=O)[C@H](Cc2ccccc2)NC(=O)[C@@H](NC(=O)[C@H](N)Cc2ccccc2)CSSC[C@@H](C(=O)N[C@H](CO)[C@@H](C)O)NC1=O` [octreotide], the maximal response (Emax) (as a rule, the greatest response seen or fitted, relative to the assay's reference) worked out at 120 ± 3.57% at SSTR3 mutants [1] and 92.4 ± 10.2% on SSTR3 mutants [2] (Suppl. Tables 4/5, SSTR3 H192(45.51)T, n=3, read-out: Emax). In addition, the “LogEC50 (best-fit)” value on SSTR3 mutants [1] (run 1) was -8.602; on SSTR3 mutants [1] (run 2) it was -8.875; on SSTR3 mutants [1] (run 3), -8.73; at SSTR3 mutants [1] (run 4), -9.386; at SSTR3 mutants [2] (run 1) it was -7.081; at SSTR3 mutants [2] (run 2), -7.677. Further, the “LogEC50 (best-fit)” value on SSTR3 mutants [2] (run 3) is -7.174; on SSTR3 mutants [2] (run 4), -7.758. Besides, the “Top (best-fit)” value on SSTR3 mutants [1] (run 1) was 99.48; on SSTR3 mutants [1] (run 2), 120.3; at SSTR3 mutants [1] (run 3), 98.22; on SSTR3 mutants [1] (run 4), 101.4; on SSTR3 mutants [2] (run 1), 99.15; at SSTR3 mutants [2] (run 2), 107.4. The “Top (best-fit)” value on SSTR3 mutants [2] (run 3) was determined as 100.5; on SSTR3 mutants [2] (run 4), 101.2. In addition, on SSTR3 mutants [2] (H192(45.51)T mutant of SSTR3), the “EC50 of mutant versus wild-type” value is “retained a similar EC50 as wild-type receptor”.
On to `N#Cc1cccc(-c2ccc3ncc(-c4cc(F)cc(F)c4)c(N4CCC(N)CC4)c3c2)c1O` [paltusotine], for which the values for the maximal response (Emax) on SSTR3 mutants [1] and at SSTR3 mutants [2] were 90.7 ± 7.93% and 108 ± 8.99%, respectively. For the same molecule, the “Fold of WT” value at SSTR3 mutants [1] (Suppl. Tables 4/5, SSTR3 N101(2.64)V) turned out to be 1.31; on SSTR3 mutants [2] (Suppl. Tables 4/5, SSTR3 H192(45.51)T), 0.91. In addition, the EC50 (commonly the concentration needed to bring the measured effect to its halfway point) at SSTR3 mutants [1] (Suppl. Tables 4/5, SSTR3 N101(2.64)V, n=3) worked out at 0.0837 ± 0.00131 µM; on SSTR3 mutants [1] (best-fit, SSTR3 N101V-1), 0.0853 µM; at SSTR3 mutants [2] it was 0.0581 ± 0.00143 µM; at SSTR3 mutants [2] (best-fit, SSTR3 H192T-1, read-out: EC50) it was 0.0672 µM; on SSTR3 mutants [2] (best-fit, SSTR3 H192T-2, read-out: EC50) it was 0.056 µM. For the same molecule, the Bottom at SSTR3 mutants [1] (best-fit, SSTR3 N101V-1) came out at 2.574; at SSTR3 mutants [1] (best-fit, SSTR3 N101V-2), 5.233; at SSTR3 mutants [1] (best-fit, SSTR3 N101V-3), 5.233; at SSTR3 mutants [2] (best-fit, SSTR3 H192T-1), 14.85; on SSTR3 mutants [2] (best-fit, SSTR3 H192T-2) it was 37.09. In addition, the LogEC50 on SSTR3 mutants [1] (best-fit, SSTR3 N101V-1) is reported as -7.069; at SSTR3 mutants [1] (best-fit, SSTR3 N101V-2), -7.01; on SSTR3 mutants [1] (best-fit, SSTR3 N101V-3), -7.01; at SSTR3 mutants [2] (best-fit, SSTR3 H192T-1), -7.173; at SSTR3 mutants [2] (best-fit, SSTR3 H192T-2), -7.251. Also, the Span on SSTR3 mutants [1] (best-fit, SSTR3 N101V-1) was determined as 181.5; at SSTR3 mutants [1] (best-fit, SSTR3 N101V-2), 137.4; on SSTR3 mutants [1] (best-fit, SSTR3 N101V-3), 137.4; on SSTR3 mutants [2] (best-fit, SSTR3 H192T-1), 475; on SSTR3 mutants [2] (best-fit, SSTR3 H192T-2) it was 569.9. The Top is on record as 489.8 at SSTR3 mutants [2] (best-fit, SSTR3 H192T-1) and 607 at SSTR3 mutants [2] (best-fit, SSTR3 H192T-2).
